Reference: PubChem BioAssay AID1963965 (Molecular Pharmacology Branch, DTP, NCI, 2024)

System: 996289-038-R-J1-PDC spheroid viability
Experiment: Anticancer human tumor 996289-038-R-J1-PDC patient-derived colon adenocarcinoma cell line growth inhibition [PI3K]
Conditions: spheroids with HUVEC and MSC; for IC50: curve of first compound; for viability, T/C: stronger effect = lower value; active = viability on the fitted dose curve at most 10% of control; inactive = the rest
How it was run: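 Three cell types, namely tumor cells, endothelial cells and mesenchymal stem cells, formed each spheroid. Combinations with four PI3K inhibitors were screened at clinically achievable concentrations decreasing by half-log, and spheroid viability was recorded.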

[1] = second compound 0.0316 µM, first compound 0.0316 µM
[2] = second compound 0.0316 µM, first compound 0.1 µM
[3] = second compound 0.1 µM, first compound 0.0316 µM
[4] = second compound 0.1 µM, first compound 0.1 µM
[5] = second compound 0.316 µM, first compound 0.0316 µM
[6] = second compound 0.316 µM, first compound 0.1 µM
[7] = second compound 1 µM, first compound 0.0316 µM
[8] = second compound 1 µM, first compound 0.1 µM
[9] = second compound 3.16 µM, first compound 0.0316 µM
[10] = second compound 3.16 µM, first compound 0.1 µM
[11] = second compound 10 µM, first compound 0.0316 µM
[12] = second compound 10 µM, first compound 0.1 µM
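Also: spheroids exposed to compounds for seven days before viability read.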
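For viability, T/C in this document: luminescence used as a proxy for viable cell amount; percent viability relative to DMSO vehicle control as 100%.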

Cn1ncnc1[C@H]1c2n[nH]c(=O)c3cc(F)cc(c23)N[C@@H]1c1ccc(F)cc1 + CC(Nc1ncnc2nc[nH]c12)c1cc2cccc(Cl)c2c(=O)n1-c1ccccc1
inactive: viability, T/C (second compound 0.0316 µM, first compound 0.000316 µM) 97.1% | viability, T/C (second compound 0.0316 µM, first compound 0.001 µM) 99.7% | viability, T/C (second compound 0.0316 µM, first compound 0.00316 µM) 107% | viability, T/C (second compound 0.0316 µM, first compound 0.01 µM) 104% | viability, T/C [1] 111% | viability, T/C [2] 94.3% | viability, T/C (second compound 0.1 µM, first compound 0.000316 µM) 107% | viability, T/C (second compound 0.1 µM, first compound 0.001 µM) 98.4% | viability, T/C (second compound 0.1 µM, first compound 0.00316 µM) 96.1% | viability, T/C (second compound 0.1 µM, first compound 0.01 µM) 96.3% | viability, T/C [3] 122% | viability, T/C [4] 96.4% | viability, T/C (second compound 0.316 µM, first compound 0.000316 µM) 93.9% | viability, T/C (second compound 0.316 µM, first compound 0.001 µM) 102% | viability, T/C (second compound 0.316 µM, first compound 0.00316 µM) 110% | viability, T/C (second compound 0.316 µM, first compound 0.01 µM) 100% | viability, T/C [5] 109% | viability, T/C [6] 89.8% | viability, T/C (second compound 1 µM, first compound 0.000316 µM) 95.1% | viability, T/C (second compound 1 µM, first compound 0.001 µM) 94.3% | viability, T/C (second compound 1 µM, first compound 0.00316 µM) 103% | viability, T/C (second compound 1 µM, first compound 0.01 µM) 96.3% | viability, T/C [7] 103% | viability, T/C [8] 95.2% | viability, T/C (second compound 3.16 µM, first compound 0.000316 µM) 90.4% | viability, T/C (second compound 3.16 µM, first compound 0.001 µM) 109% | viability, T/C (second compound 3.16 µM, first compound 0.00316 µM) 94.5% | viability, T/C (second compound 3.16 µM, first compound 0.01 µM) 96.3% | viability, T/C [9] 95.4% | viability, T/C [10] 94.8% | viability, T/C (second compound 10 µM, first compound 0.000316 µM) 90% | viability, T/C (second compound 10 µM, first compound 0.001 µM) 90.5% | viability, T/C (second compound 10 µM, first compound 0.00316 µM) 96.8% | viability, T/C (second compound 10 µM, first compound 0.01 µM) 81.5% | viability, T/C [11] 94.6% | viability, T/C [12] 77.8%
> 0.1 µM: IC50 (second compound 0.0316 µM) | IC50 (second compound 0.1 µM) | IC50 (second compound 0.316 µM) | IC50 (second compound 1 µM) | IC50 (second compound 3.16 µM) | IC50 (second compound 10 µM)

CC1(C)CCC(Nc2ncc(C(F)(F)F)c(-c3c[nH]c4c(P(C)(C)=O)c(C#N)ccc34)n2)CN1 (stereo not given) + CC(Nc1ncnc2nc[nH]c12)c1cc2cccc(Cl)c2c(=O)n1-c1ccccc1
inactive: viability, T/C [1] 95.8% | viability, T/C [2] 84.5% | viability, T/C (second compound 0.0316 µM, first compound 0.316 µM) 85.2% | viability, T/C (second compound 0.0316 µM, first compound 1 µM) 77.9% | viability, T/C (second compound 0.0316 µM, first compound 3.16 µM) 84% | viability, T/C (second compound 0.0316 µM, first compound 10 µM) 25% | viability, T/C [3] 88.9% | viability, T/C [4] 87.3% | viability, T/C (second compound 0.1 µM, first compound 0.316 µM) 77.9% | viability, T/C (second compound 0.1 µM, first compound 1 µM) 75.4% | viability, T/C (second compound 0.1 µM, first compound 3.16 µM) 78.1% | viability, T/C (second compound 0.1 µM, first compound 10 µM) 20.1% | viability, T/C [5] 95.7% | viability, T/C [6] 83.8% | viability, T/C (second compound 0.316 µM, first compound 0.316 µM) 85.8% | viability, T/C (second compound 0.316 µM, first compound 1 µM) 77.9% | viability, T/C (second compound 0.316 µM, first compound 3.16 µM) 87.8% | viability, T/C (second compound 0.316 µM, first compound 10 µM) 19.9% | viability, T/C [7] 88.6% | viability, T/C [8] 86.1% | viability, T/C (second compound 1 µM, first compound 0.316 µM) 72.8% | viability, T/C (second compound 1 µM, first compound 1 µM) 72.3% | viability, T/C (second compound 1 µM, first compound 3.16 µM) 80.3% | viability, T/C (second compound 1 µM, first compound 10 µM) 16% | viability, T/C [9] 82.6% | viability, T/C [10] 81.3% | viability, T/C (second compound 3.16 µM, first compound 0.316 µM) 74.2% | viability, T/C (second compound 3.16 µM, first compound 1 µM) 74.4% | viability, T/C (second compound 3.16 µM, first compound 3.16 µM) 79.2% | viability, T/C (second compound 3.16 µM, first compound 10 µM) 14.2% | viability, T/C [11] 90.9% | viability, T/C [12] 74.5% | viability, T/C (second compound 10 µM, first compound 0.316 µM) 58.3% | viability, T/C (second compound 10 µM, first compound 1 µM) 70.3% | viability, T/C (second compound 10 µM, first compound 3.16 µM) 69.8% | viability, T/C (second compound 10 µM, first compound 10 µM) 10.9%
5.51 µM: IC50 (second compound 0.1 µM)
4.66 µM: IC50 (second compound 10 µM)
5.26 µM: IC50 (second compound 3.16 µM)
5.94 µM: IC50 (second compound 0.316 µM)
5.43 µM: IC50 (second compound 1 µM)
6.14 µM: IC50 (second compound 0.0316 µM)

Cc1nc(NC(=O)N2CCCC2C(N)=O)sc1-c1ccnc(C(C)(C)C(F)(F)F)c1 (stereo not given)
inactive: viability, T/C (compound 0.0316 µM) 99.9% [middle of 8 runs] | viability, T/C (compound 0.1 µM) 94.7% [middle of 8 runs] | viability, T/C (compound 0.316 µM) 85.8% [middle of 8 runs] | viability, T/C (compound 1 µM) 73.9% [middle of 8 runs] | viability, T/C (compound 3.16 µM) 61.8% [middle of 8 runs] | viability, T/C (compound 10 µM) 52.6% [middle of 8 runs]
